Article PMC9014415, “Repositioning of a Diaminothiazole Series Confirmed to Target the Cyclin-Dependent Kinase CRK12 for Use in the Treatment of African Animal Trypanosomiasis” (Journal of Medicinal Chemistry, 2022)
Several values for one entry are separate records, joined by “and”; a condition that tells them apart may be missing. Identical values can stand only once. Like-named read-outs stand apart in the source and are kept apart here.

Columns and labels:
[1] = in vivo
[2] = PK in female NMRI mice, SC; type: in vivo, mouse
Method: 2.5 PK and maximum tolerated dose - mouse
PK studies in female NMRI mice (Figure S1): Test compounds 1, 2 and 10 were dosed SC at 10 mg free base/kg (dose volume 10 mL/kg; dose vehicle: 5% (v/v) DMSO, 40% polyethylene glycol 400 (PEG400) and 55% deionized water) to female NMRI mice (n = 3). Blood samples (10 μL) were taken from each mouse at 0.08, 0.25, 0.5, 1, 2, 4, 6, 8 h post dose (24 h post dose for compounds 2 and 10 only) and mixed with two volumes of deionized water (20 μL). Alternatively, compound 2 was delivered for 48 h via SC implanted ALZET osmotic pumps (10, 25 and 50 mg free base/mL, vehicle: 50% DMSO and 50% deionized water) to the female NMRI mouse (n = 3). Blood samples (10 μL) from each mouse were taken at 1, 3, 6, 24, 30 and 48 h post-dose and mixed with two volumes of deionized water (20 μL). […]

[3] = Pharmacokinetic studies in male Friesian-Holstein cattle, IV and IM (Ridgeway); type: in vivo; details: for Vd: read-out: Vdss
Method: 2.7 Pharmacokinetic studies in cattle (see Table 2). Studies conducted at Ridgeway Compound 1 was dosed IM at 5 mg free base/kg (dose volume 2mL/10 kg; dose vehicle 10% N-Methyl-2-Pyrrolidinone (NMP), 40% 2-pyrrolidinone, 30% PEG400, 20% deionized water) or IV at 2.5 mg free base/kg (dose volume 0.4 mL/10 kg; 2.5% NMP, 30% PEG400, 37.5% propylene glycol, 30% water by volume) to male ruminating Holstein-Friesian cross animals (n = 4). Blood samples were taken from each animal using 18-G needles into EDTA (K2) vacutainers before dosing and at […]
a cool box containing iced water and were processed within 2 h of collection (Figure S2, Table S1).
Compound 2 was dosed IM at 10 mg free base/kg (dose volume 2 mL/10 kg; dose vehicle 40% 0.3 M Acetate Buffer, 20% Kolliphor EL, 20% glycerol formal, 20% 2-pyrrolidone) or IV at 2 mg free base/kg (dose volume 0.4 mL/10 kg; 40% 0.3 M Acetate Buffer, 20% Kolliphor EL, 20% glycerol formal, 20% 2-pyrrolidone) to male ruminating Holstein-Friesian cross animals (n = 3). Blood samples were taken from each animal using 18-G needles into EDTA (K2) vacutainers before dosing […]
into a cool box containing iced water and were processed within 2 h of collection. […]

[4] = system: bloodstream T. brucei resistant lines R1-R3; assay: Sensitivity of compound 2-resistant T. brucei lines compared to wild-type; type: cell-based, Trypanosoma brucei
Method: To gain further insight into the molecular target(s) of this series, resistance was generated against compound 2 in a drug-sensitive clonal line of bloodstream T. brucei. Trypanosomes were cultured in the continuous presence of compound 2 for a total of 122 days. […] Following drug selection, resistant parasites were cloned by limiting dilution. The relative sensitivities of these cloned cell lines were established and compared to that of wild-type parasites. Resistant lines R1 and R3 were 10-fold resistant, while R2 was 90-fold resistant to compound 2 (Figure 4A). […] In addition, all three clones had lost a significant part of chromosome 10 and gained additional copies of a region of chromosome 8. All three resistant lines carried a mutation in Tb927.4.4590, a gene encoding a non-essential putative kinase and in Tb927.11.10300, encoding a hypothetical protein. Of particular note, all three clones (R1–3) shared a non-synonymous substitution (Gly492Ala) in Tb927.11.12310, the gene encoding CRK12. In addition, R2 harbored a second non-synonymous substitution (Leu482Phe) in CRK12 (Table S10). […]
in cattle). Blood from the donor animals, diluted with phosphate buffered glucose was used to infect recipient animals IV via the jugular vein. Infection was with approximately 100,000 fresh viable parasites. The compounds were given IM. Each injection was up to 10 mL and given in neck in the following order: left anterior third, right anterior third, left posterior third and right posterior third.
Animals over 240 kg required a fifth injection site for the IVP, and this was given in the left or right hind leg. Cattle were randomised to treatments. Parasitaemia was monitored 3 times per calendar week, though collection of blood and assessment of clinical symptoms. Blood samples were also […]
treatment). Cattle were also monitored for PCV, clinical symptoms, body weight and temperature […]
4. Mode of action studies
4.1 Resistant line generation […]
Sequencing reads (100 bp) were aligned to the Trypanosoma brucei TREU927 genome (v39; tritrypDB) using Bowtie210 and Samtools11 software. […]

[5] = cattle, IM 5 mg/kg, individual animals 2754, 7462, 1753, 6752
[6] = cattle, IM 5 mg/kg, n = 4, mean
[7] = cattle, IV 2.5 mg/kg, individual animals 2754, 7462, 1753, 6752, 2.5 mg/kg
[8] = male, Holstein-Friesian cross, bovine, blood, im, 5 mg/kg, cattle, IM 5 mg/kg, individual animals 2754, 7462, 1753, 6752
[9] = cattle, IM 10 mg/kg, individual animals 1644, 3646, 7643
[10] = cattle, IM 10 mg/kg, n = 3, mean
[11] = cattle, IV 2 mg/kg, individual animals 1644, 3646, 7643, 2 mg/kg
[12] = cattle, IV 2 mg/kg, n = 3, mean, 2 mg/kg
[13] = male, Holstein-Friesian cross, bovine, blood, im, 10 mg/kg, cattle, IM 10 mg/kg, individual animals 1644, 3646, 7643
[14] = male, Holstein-Friesian cross, bovine, blood, im, 10 mg/kg, cattle, IM 10 mg/kg, n = 3, mean
[15] = male, Holstein-Friesian cross, bovine, blood, iv, 2 mg/kg, cattle, IV 2 mg/kg, individual animals 1644, 3646, 7643
[16] = male, Holstein-Friesian cross, bovine, blood, iv, 2 mg/kg, cattle, IV 2 mg/kg, n = 3, mean

CC(C)CS(=O)(=O)N[C@H]1CC[C@H](Nc2nc(N)c(C(=O)c3c(F)cccc3F)s2)CC1 [Compound 1, N-((trans)-4-((4-Amino-5-(2,6-difluorobenzoyl)thiazol-2-yl)amino)cyclohexyl)-2-methylpropane-1-sulfonamide]
Mouse oral MTD ([1]; po, 3 days): >300 mg/kg | Tolerability, maximum tolerated dose study ([1]; mouse, sc): No tolerability issues | bioavailability at 8 h ([2]; mouse, whole blood, 10 mg/kg SC): 74% | half-life at 8 h ([2]; mouse, whole blood, 10 mg/kg SC, read-out: T½): 1 h | half-life ([2]; mouse, whole blood, 10 mg/kg SC, read-out: T½ (converted)): ~1 h | AUC 0-∞ [3, 5]: 26,000 ng-min/mL and 15,000 ng-min/mL and 22,000 ng-min/mL | Cmax [3, 5]: 70 ng/mL and 128 ng/mL and 118 ng/mL and 216 ng/mL | F [3, 5]: 11% and 7% (2×) | Tmax [3, 5]: 0.25 h | Cmax [3, 6]: 130 ± 60 ng/mL | F [3, 6]: 8.8 ± 2.1% | AUC 0-∞ [3, 7]: 120,000 ng-min/mL (2×) and 160,000 ng-min/mL | Clb [3, 7]: 24 mL/min/kg and 20 mL/min/kg and 21 mL/min/kg and 15 mL/min/kg | Vdss [3, 7]: 3.5 L/kg and 1.8 L/kg and 2.5 L/kg and 1.7 L/kg | half-life [3, 7]: 1.7 h and 2.4 h | Clb ([3]; cattle, IV 2.5 mg/kg, n = 4, mean ± SD): 20 ± 4 mL/min/kg | AUC(0-inf) [3, 8]: 350 ng·h/mL | bioavailability [3, 8]: 10% | Tmax ([3]; male, Holstein-Friesian cross, bovine, blood, im, 5 mg/kg, cattle, IM 5 mg/kg, individual animals 2754, 7462, 1753, 6752, read-out: Tmax): 0.5 h | bioavailability ([3]; male, Holstein-Friesian cross, bovine, blood, im, 5 mg/kg, cattle, IM 5 mg/kg, n = 4, mean): 9% | Cmax ([3]; male, Holstein-Friesian cross, bovine, blood, im, 5 mg/kg, cattle, IM 5 mg/kg, n = 4, mean, read-out: Cmax): 133 ng/mL | AUC(0-inf) ([3]; male, Holstein-Friesian cross, bovine, blood, iv, 2.5 mg/kg, cattle, IV 2.5 mg/kg, individual animals 2754, 7462, 1753, 6752): 1670 ng·h/mL | half-life ([3]; male, Holstein-Friesian cross, bovine, blood, iv, 2.5 mg/kg, cattle, IV 2.5 mg/kg, individual animals 2754, 7462, 1753, 6752, read-out: Half-life (converted)): 1.2 h | AUC(0-inf) ([3]; male, Holstein-Friesian cross, bovine, blood, iv, 2.5 mg/kg, cattle, IV 2.5 mg/kg, n = 4, mean ± SD): 2170 ng·h/mL | half-life ([3]; male, Holstein-Friesian cross, bovine, blood, iv, 2.5 mg/kg, cattle, IV 2.5 mg/kg, n = 4, mean ± SD, read-out: half-life (converted)): ~1.8 h | AUC(0-t) ([3]; male, Holstein-Friesian cross, bovine, blood, cattle, IM 5 mg/kg, mean, read-out: AUC0-8 (converted)): 349 ng·h/mL | AUC(0-inf) ([3]; male, Holstein-Friesian cross, bovine, whole blood, im, 5 mg/kg, cattle, IM 5 mg/kg, n = 4, mean ± SD): 350 ng·h/mL | Tmax ([3]; male, Holstein-Friesian cross, bovine, whole blood, im, 5 mg/kg, cattle, IM 5 mg/kg, n = 4, mean ± SD, read-out: Tmax): 0.44 ± 0.13 h | Vd ([3]; male, Holstein-Friesian cross, bovine, whole blood, iv, 2.5 mg/kg, cattle, IV 2.5 mg/kg, n = 4, mean ± SD): 2.4 ± 0.8 L/kg

CC(C)CS(=O)(=O)N[C@H]1CC[C@H](Nc2nc(N)c(C(=O)c3c(F)cc(CN(C)C)cc3F)s2)CC1 [Compound 2, N-(trans)-[4-[[4-Amino-5-[4-(dimethylaminomethyl)-2,6-difluoro-benzoyl]thiazol-2-yl]amino]cyclohexyl]-2-methyl-propane-1-sulfonamide]
Cmax ([2]; mouse, blood, 10 mg/kg, single SC 10 mg free base/kg): 818 ng/mL | AUC(0-t) ([2]; mouse, blood, 10 mg/kg, single SC 10 mg free base/kg, read-out: AUC0-24 (converted)): 2160 ng·h/mL | concentration at 8 h ([2]; mouse, blood, single SC 10 mg free base/kg, read-out: Cmin (8 h)): 10 ng/mL | Cav ([2]; single SC 10 mg free base/kg): 78 ng/mL | Cav ([3]; Friesian cattle, single IM 10 mg free base/kg): 253 ng/mL | AUC 0-∞ [3, 9]: 510,000 ng-min/mL and 460,000 ng-min/mL | Cmax [3, 9]: 950 ng/mL and 1,700 ng/mL and 2,600 ng/mL | F [3, 9]: 75% and 66% | AUC 0-∞ [3, 10]: 500,000 ± 30,000 ng-min/mL | Cmax [3, 10]: 1700 ± 800 ng/mL | F [3, 10]: 73 ± 6% | Tmax [3, 10]: 1.3 ± 0.6 h | Injection site tolerability ([3]; cattle, IM, pharmacokinetic study): irritancy and necrosis | AUC 0-∞ [3, 11]: 94,000 ng-min/mL and 180,000 ng-min/mL | Clb [3, 11]: 14 mL/min/kg and 21 mL/min/kg and 11 mL/min/kg | half-life [3, 11]: 3 h | AUC 0-∞ [3, 12]: 140,000 ± 40,000 ng-min/mL | Clb [3, 12]: 15 mL/min/kg and 15 ± 5 mL/min/kg | Vdss [3, 12]: 2.3 ± 0.6 L/kg | AUC ([3]; male, Holstein-Friesian cross, bovine, blood, 10 mg/kg, Friesian cattle, single IM 10 mg free base/kg): 7330 ng·h/mL | AUC(0-inf) [3, 13]: 8830 ng·h/mL | bioavailability [3, 13]: 78% | Tmax ([3]; male, Holstein-Friesian cross, bovine, blood, im, 10 mg/kg, cattle, IM 10 mg/kg, individual animals 1644, 3646, 7643, read-out: Tmax): 2 h | AUC(0-inf) [3, 14]: 8170 ng·h/mL | bioavailability [3, 14]: 74% | Cmax ([3]; male, Holstein-Friesian cross, bovine, blood, im, 10 mg/kg, cattle, IM 10 mg/kg, n = 3, mean, read-out: Cmax): 1720 ng/mL | Tmax ([3]; male, Holstein-Friesian cross, bovine, blood, im, 10 mg/kg, cattle, IM 10 mg/kg, n = 3, mean, read-out: Tmax): 1 h | concentration at 24 h ([3]; male, Holstein-Friesian cross, bovine, blood, intramuscular, Friesian cattle, single IM 10 mg free base/kg, read-out: Cmin (24 h)): 20 ng/mL | AUC(0-inf) [3, 15]: 2330 ng·h/mL | half-life ([3]; male, Holstein-Friesian cross, bovine, blood, iv, 2 mg/kg, cattle, IV 2 mg/kg, individual animals 1644, 3646, 7643, read-out: Half-life (converted)): 6 h | Vd [3, 15]: 2 L/kg | AUC(0-inf) [3, 16]: 2170 ng·h/mL | Vd [3, 16]: 3 L/kg | half-life ([3]; male, Holstein-Friesian cross, bovine, whole blood, iv, 2 mg/kg, cattle, IV 2 mg/kg, n = 3, mean, read-out: half-life (converted)): 4 ± 2 h | Resistance compared to wild-type ([4]; resistant line R1): 10 fold | Resistance compared to wild-type ([4]; resistant line R2): 90 fold | Resistance compared to wild-type ([4]; resistant line R3): 10 fold
